Measured values from patent US20180318311A1, “TRICYCLIC 2-QUINOLINONES AS ANTIBACTERIALS” (priority 2017, published 2018).
Converted amounts (≈) assume the structure as drawn.

Legend:
Assay type in all cases: cell-based
[1] = test system: P. aeruginosa NB52019, wild-type PAO1 strain; assay: MIC by broth microdilution, P. aeruginosa NB52019; details: Pseudomonas aeruginosa, CAMHB, 35° C., 20 hours, read-out: Antibacterial activity (MIC) NB52019
Description: (§1) Bacterial isolates were cultivated from −80° C. frozen stocks by overnight passages at 35° C. in ambient air on Mueller-Hinton agar plates (MHA, Becton Dickinson, Franklin Lakes, NB) with the exception of S. pneumoniae which was grown overnight at 35° C. in the presence of 5% CO2 on blood agar plates (tryptic soy agar with 5% sheep blood (Thermo Scientific, Waltham, Mass.) . The following quality control and wild type strains were obtained from the American Type Culture Collection (ATCC; Rockville, Md.) and are coded in the Novartis strain collection as indicated: E. coli ATCC 25922 (NB27001), E. faecalis ATCC 29212 (NB04001), S. aureus ATCC 49951 (NB01006) and S. pneumoniae ATCC […] (NB07001). […] P. aeruginosa NB52019, obtained from Queen's University (Kingston, Ontario, Canada), is the wild-type PAO1 strain.
(§2) Minimal Inhibitory Concentrations (MIC) were determined by the broth microdilution method in accordance with Clinical and Laboratories Institute (CLSI) guidelines. In brief, fresh bacterial overnight cultures were re-suspended in sterile saline, adjusted to a 0.5 McFarland turbidity standard and then diluted to yield a final inoculum of approximately 5×10^5 colony-forming units (CFU)/mL. All bacterial suspensions were prepared in cation adjusted Mueller-Hinton Broth (CAMHB; Becton Dickinson, Franklin Lakes, N.J.;) with the exception of S. pneumoniae which was prepared in CAMHB supplemented with 5% lysed horse blood (Hardy Diagnostics, Santa Maria, Calif.). Two-fold serial dilutions of compounds were prepared in 100% dimethyl sulfoxide (DMSO) at 100-fold the highest final assay concentration; the resulting dilution series of compounds were diluted 1:10 with sterile water. Ten μL of the drug dilution series in 10% DMSO was transferred to microtiter wells and 90 μL of bacterial suspension was inoculated into the wells. All inoculated microdilution trays were incubated in ambient air at 35° C. for 20 hours. Following incubation, assay plates were read in a microtiter plate reader at 600 nm and visually inspected to confirm the MIC endpoint well with the OD value. The lowest concentration of the compound that prevented visible growth was recorded as the MIC (in μg/mL).

[2] = test system: S. pneumoniae ATCC 25922 (NB07001); assay: MIC by broth microdilution, S. pneumoniae NB07001; details: Streptococcus pneumoniae, ATCC25922, 20 h, read-out: Antibacterial activity (MIC) NB07001
Description: as §1, §2

[3] = test system: S. aureus ATCC 49951 (NB01006); assay: MIC by broth microdilution, S. aureus NB01006; details: Staphylococcus aureus, ATCC49951, CAMHB, 35° C., 20 hours, read-out: Antibacterial activity (MIC) NB01006
Description: as §1, §2

[4] = test system: E. coli ATCC 25922 (NB27001); assay: MIC by broth microdilution, E. coli NB27001; details: Escherichia coli, ATCC25922, CAMHB, 35° C., 20 hours, read-out: Antibacterial activity (MIC) NB27001
Description: as §1, §2

[5] = test system: S. aureus NB01006-AVR005, gyrA (S84L), grlA (580F) and grlB (E471K); assay: microbe, parasite or virus in culture; details: Staphylococcus aureus, 20 h, read-out: Antibacterial activity (MIC) NB01006-AVR005
Description: as §1, §2

[6] = test system: S. aureus NB01080 fluoroquinolone-resistant clinical isolate; assay: MIC by broth microdilution, S. aureus NB01080; details: Staphylococcus aureus, CAMHB, 35° C., 20 hours, read-out: Antibacterial activity (MIC) NB01080
Description: as §1, §2

[7] = test system: E. faecalis ATCC 29212 (NB04001); assay: MIC by broth microdilution, E. faecalis NB04001; details: Enterococcus faecalis, ATCC29212, CAMHB, 35° C., 20 hours, read-out: Antibacterial activity (MIC) NB04001
Description: as §1, §2

Row | Compound | MIC [1] | MIC [2] | MIC [3] | MIC [4] | MIC [5] | MIC [6] | MIC [7]
1 | C[C@H]1COc2c(N3CC4C(C3)C4N(C)C)c(F)cc3cc(C(=O)O)c(=O)n1c23 (mixture of isomers) [Example 1.69, (3S)-10-(6-(dimethylamino)-3-azabicyclo[3.1.0]hexan-3-yl)-9-fluoro-3-methyl-5-oxo-2,3-dihydro-5H-[1,4]oxazino[2,3,4-ij]quinoline-6-carboxylic acid] | > 32 µg/mL | 1 to 32 µg/mL | 1 to 32 µg/mL | > 32 µg/mL | > 32 µg/mL | > 32 µg/mL | > 32 µg/mL
2 | C[C@H]1COc2c(N3CCCC4(CCN(C)C4)C3)c(F)cc3cc(C(=O)O)c(=O)n1c23 (mixture of isomers) [Example 1.70, (3S)-9-fluoro-3-methyl-10-(2-methyl-2,7-diazaspiro[4.5]decan-7-yl)-5-oxo-2,3-dihydro-5H-[1,4]oxazino[2,3,4-ij]quinoline-6-carboxylic acid] | > 32 µg/mL | 1 to 32 µg/mL | 1 to 32 µg/mL | > 32 µg/mL | > 32 µg/mL | > 32 µg/mL | > 32 µg/mL
3 | C[C@H]1COc2c(N3CCCC4(CCNC4)C3)c(F)cc3cc(C(=O)O)c(=O)n1c23 (mixture of isomers) [Example 1.71, (3S)-9-fluoro-3-methyl-5-oxo-10-(2,7-diazaspiro[4.5]decan-7-yl)-2,3-dihydro-5H-[1,4]oxazino[2,3,4-ij]quinoline-6-carboxylic acid] | > 32 µg/mL | > 32 µg/mL | > 32 µg/mL | > 32 µg/mL | > 32 µg/mL | > 32 µg/mL | > 32 µg/mL
4 | C[C@H]1COc2c(N3CC4CCC(N)C4C3)c(F)cc3cc(C(=O)O)c(=O)n1c23 (single isomer, unassigned) [Example 1.28] | > 32 µg/mL | < 1 µg/mL | 1 to 32 µg/mL (≈ 2.58 to 82.6 µM) | > 32 µg/mL | > 32 µg/mL | > 32 µg/mL | 1 to 32 µg/mL (≈ 2.58 to 82.6 µM)
5 | C[C@H]1COc2c(N3CCC4CCNCC4C3)c(F)cc3cc(C(=O)O)c(=O)n1c23 (single isomer, unassigned) [Example 1.29] | > 32 µg/mL | > 32 µg/mL | > 32 µg/mL | > 32 µg/mL | > 32 µg/mL | > 32 µg/mL | > 32 µg/mL
6 | C[C@H]1COc2c(N3CCC4(CCC4N)CC3)c(F)cc3cc(C(=O)O)c(=O)n1c23 (single isomer, unassigned) [Example 1.32] | > 32 µg/mL | 1 to 32 µg/mL (≈ 2.49 to 79.7 µM) | 1 to 32 µg/mL (≈ 2.49 to 79.7 µM) | > 32 µg/mL | > 32 µg/mL | > 32 µg/mL | 1 to 32 µg/mL (≈ 2.49 to 79.7 µM)
7 | C[C@H]1COc2c(N3CCC4(CC3)CC4N)c(F)cc3cc(C(=O)O)c(=O)n1c23 (single isomer, unassigned) [Example 1.33] | > 32 µg/mL | 1 to 32 µg/mL (≈ 2.58 to 82.6 µM) | 1 to 32 µg/mL (≈ 2.58 to 82.6 µM) | 1 to 32 µg/mL (≈ 2.58 to 82.6 µM) | > 32 µg/mL | 1 to 32 µg/mL (≈ 2.58 to 82.6 µM) | 1 to 32 µg/mL (≈ 2.58 to 82.6 µM)
8 | C[C@H]1COc2c(N3CC4CNC4C3)c(F)cc3cc(C(=O)O)c(=O)n1c23 (single isomer, unassigned) [Example 1.39] | > 32 µg/mL | > 32 µg/mL | > 32 µg/mL | > 32 µg/mL | > 32 µg/mL | > 32 µg/mL | > 32 µg/mL
9 | C[C@H]1COc2c(N3CCC4(CC4N)C3)c(F)cc3cc(C(=O)O)c(=O)n1c23 (single isomer, unassigned) [Example 1.42] | 1 to 32 µg/mL (≈ 2.68 to 85.7 µM) | < 1 µg/mL | < 1 µg/mL | < 1 µg/mL | 1 to 32 µg/mL (≈ 2.68 to 85.7 µM) | 1 to 32 µg/mL (≈ 2.68 to 85.7 µM) | 1 to 32 µg/mL (≈ 2.68 to 85.7 µM)
10 | C[C@H]1COc2c(N3CCC(C(C)(C)N)C3)c(F)cc3cc(C(=O)O)c(=O)n1c23 (single isomer, unassigned) [Example 1.43] | > 32 µg/mL | < 1 µg/mL | < 1 µg/mL | 1 to 32 µg/mL (≈ 2.57 to 82.2 µM) | 1 to 32 µg/mL (≈ 2.57 to 82.2 µM) | 1 to 32 µg/mL (≈ 2.57 to 82.2 µM) | < 1 µg/mL
11 | CCC(N)C1CCN(c2c(F)cc3cc(C(=O)O)c(=O)n4c3c2OC[C@@H]4C)C1 (single isomer, unassigned) [Example 1.45] | > 32 µg/mL | < 1 µg/mL | < 1 µg/mL | 1 to 32 µg/mL (≈ 2.57 to 82.2 µM) | 1 to 32 µg/mL (≈ 2.57 to 82.2 µM) | < 1 µg/mL | < 1 µg/mL
12 | C[C@H]1COc2c(N3CCC(C4(N)CCC4)C3)c(F)cc3cc(C(=O)O)c(=O)n1c23 (single isomer, unassigned) [Example 1.46] | > 32 µg/mL | < 1 µg/mL | < 1 µg/mL | 1 to 32 µg/mL (≈ 2.49 to 79.7 µM) | 1 to 32 µg/mL (≈ 2.49 to 79.7 µM) | < 1 µg/mL | < 1 µg/mL
13 | CC(N)C1(F)CCN(c2c(F)cc3cc(C(=O)O)c(=O)n4c3c2OC[C@@H]4C)C1 (single isomer, unassigned) [Example 1.47] | > 32 µg/mL | < 1 µg/mL | < 1 µg/mL | 1 to 32 µg/mL (≈ 2.54 to 81.3 µM) | 1 to 32 µg/mL (≈ 2.54 to 81.3 µM) | 1 to 32 µg/mL (≈ 2.54 to 81.3 µM) | 1 to 32 µg/mL (≈ 2.54 to 81.3 µM)
14 | C[C@H]1COc2c(N3CC(CN)C4(CCOCC4)C3)c(F)cc3cc(C(=O)O)c(=O)n1c23 (single isomer, unassigned) [Example 1.48] | > 32 µg/mL | < 1 µg/mL | < 1 µg/mL | > 32 µg/mL | 1 to 32 µg/mL (≈ 2.32 to 74.2 µM) | 1 to 32 µg/mL (≈ 2.32 to 74.2 µM) | < 1 µg/mL
15 | C[C@H]1COc2c(N3CC(CN)C4(CCC4)C3)c(F)cc3cc(C(=O)O)c(=O)n1c23 (single isomer, unassigned) [Example 1.49] | 1 to 32 µg/mL (≈ 2.49 to 79.7 µM) | < 1 µg/mL | < 1 µg/mL | 1 to 32 µg/mL (≈ 2.49 to 79.7 µM) | 1 to 32 µg/mL (≈ 2.49 to 79.7 µM) | 1 to 32 µg/mL (≈ 2.49 to 79.7 µM) | < 1 µg/mL
16 | C[C@H]1COc2c(N3CC4CCCC4(CN)C3)c(F)cc3cc(C(=O)O)c(=O)n1c23 (single isomer, unassigned) [Example 1.50] | > 32 µg/mL | < 1 µg/mL | < 1 µg/mL | > 32 µg/mL | 1 to 32 µg/mL (≈ 2.49 to 79.7 µM) | 1 to 32 µg/mL (≈ 2.49 to 79.7 µM) | 1 to 32 µg/mL (≈ 2.49 to 79.7 µM)
17 | C[C@H]1COc2c(N3CC4CC(N)C4C3)c(F)cc3cc(C(=O)O)c(=O)n1c23 (single isomer, unassigned) [Example 1.62] | > 32 µg/mL | > 32 µg/mL | 1 to 32 µg/mL (≈ 2.68 to 85.7 µM) | > 32 µg/mL | > 32 µg/mL | > 32 µg/mL | > 32 µg/mL
